Experiments:
C. neoformans = experiment: Tests for MIC and MFC; type: cell-based, Cryptococcus neoformans; details: unit assumed; for MIC: 12 h culture, absorbance 600 nm; for MFC: subculture further 12 h
E. faecalis = experiment: Tests for MIC and MBC; type: cell-based, Enterococcus faecalis; details: unit assumed; for MIC: 12 h culture, absorbance 600 nm; for MBC: subculture further 12 h
S. thermophilus = experiment: Tests for MIC and MBC; type: cell-based, Streptococcus thermophilus; details: unit assumed; for MIC: 12 h culture, absorbance 600 nm; for MBC: subculture further 12 h
H. staphylococcus = experiment: Tests for MIC and MBC; type: cell-based, hemolytic staphylococcus; details: unit assumed; for MIC: 12 h culture, absorbance 600 nm; for MBC: subculture further 12 h
P. aeruginosa = experiment: Tests for MIC and MBC; type: cell-based, Pseudomonas aeruginosa; details: unit assumed; for MIC: 12 h culture, absorbance 600 nm; for MBC: subculture further 12 h
P. fluorescens = experiment: Tests for MIC and MBC; type: cell-based, Pseudomonas fluorescens; details: unit assumed; for MIC: 12 h culture, absorbance 600 nm; for MBC: subculture further 12 h
S. enteritidis = experiment: Tests for MIC and MBC; type: cell-based, Salmonella enteritidis; details: unit assumed; for MIC: 12 h culture, absorbance 600 nm; for MBC: subculture further 12 h
Y. enterocolitis = experiment: Tests for MIC and MBC; type: cell-based, Yersinia enterocolitis; details: unit assumed; for MIC: 12 h culture, absorbance 600 nm; for MBC: subculture further 12 h
S. lactis = experiment: Tests for MIC and MBC; type: cell-based, Streptococcus lactis; details: unit assumed; for MIC: 12 h culture, absorbance 600 nm; for MBC: subculture further 12 h
M. globosa = experiment: Tests for MIC and MFC; type: cell-based, Malassezia globosa; details: unit assumed; for MIC: 12 h culture, absorbance 600 nm; for MFC: subculture further 12 h
E. coli = details: 12 h culture, absorbance 600 nm
P. vulgaris = experiment: Tests for MIC and MBC; type: cell-based, Proteus vulgaris; details: unit assumed; for MIC: 12 h culture, absorbance 600 nm; for MBC: subculture further 12 h
C. albicans = experiment: Tests for MIC and MFC; type: cell-based, Candida albicans; details: unit assumed; for MIC: 12 h culture, absorbance 600 nm; for MFC: subculture further 12 h
S. aureus = details: 12 h culture, absorbance 600 nm
B. subtilis = experiment: Tests for MIC and MBC; type: cell-based, Bacillus subtilis; details: unit assumed; for MIC: 12 h culture, absorbance 600 nm; for MBC: subculture further 12 h
L. monocytogenes = experiment: Tests for MIC and MBC; type: cell-based, Listeria monocytogenes; details: unit assumed; for MIC: 12 h culture, absorbance 600 nm; for MBC: subculture further 12 h
K. pneumoniae = experiment: Tests for MIC and MBC; type: cell-based, Klebsiella pneumoniae; details: unit assumed; for MIC: 12 h culture, absorbance 600 nm; for MBC: subculture further 12 h
M. furfur = experiment: Tests for MIC and MFC; type: cell-based, Malassezia furfur; details: unit assumed; for MIC: 12 h culture, absorbance 600 nm; for MFC: subculture further 12 h
A. flavus = experiment: Tests for MIC and MFC; type: cell-based, Aspergillus flavus; details: unit assumed; for MIC: 12 h culture, absorbance 600 nm; for MFC: subculture further 12 h
B. cereus = experiment: Tests for MIC and MBC; type: cell-based, Bacillus cereus; details: unit assumed; for MIC: 12 h culture, absorbance 600 nm; for MBC: subculture further 12 h
S. epidermidis = experiment: Tests for MIC and MBC; type: cell-based, Staphylococcus epidermidis; details: unit assumed; for MIC: 12 h culture, absorbance 600 nm; for MBC: subculture further 12 h
T. rubrum = experiment: Tests for MIC and MFC; type: cell-based, Trichophyton rubrum; details: unit assumed; for MIC: 12 h culture, absorbance 600 nm; for MFC: subculture further 12 h
S. bovis = experiment: Tests for MIC and MBC; type: cell-based, Streptococcus bovis; details: unit assumed; for MIC: 12 h culture, absorbance 600 nm; for MBC: subculture further 12 h
C. perfringens = details: 12 h culture, absorbance 600 nm
A. niger = experiment: Tests for MIC and MFC; type: cell-based, Aspergillus niger; details: unit assumed; for MIC: 12 h culture, absorbance 600 nm; for MFC: subculture further 12 h
C. diphtheriae = details: 12 h culture, absorbance 600 nm
S. mutans = experiment: Tests for MIC and MBC; type: cell-based, Streptococcus mutans; details: unit assumed; for MIC: 12 h culture, absorbance 600 nm; for MBC: subculture further 12 h
[1] = tested on: Human neuroblastoma SH-SY5Y cell line; experiment: IC50 determination (CCK-8); type: cell-based; details: DMEM/F12, treated 8 h
Experimental: (§1) The cells were washed with PBS (pH 7.4), added with a CCK-8 solution (Beijing Beyotime Biotechnology) to each well according to the instructions, and then incubated for 4 h.

[2] = tested on: Mouse liver cancer H22 cell line; experiment: IC50 determination (CCK-8); type: cell-based; details: H22, RPMI 1640, treated 8 h
Experimental: as §1

[3] = tested on: Human neuroglioma U521MG cell Line; experiment: IC50 determination (CCK-8); type: cell-based; details: DMEM HG, treated 8 h
Experimental: as §1

[4] = tested on: Human lung adenocarcinoma A549 cell line; experiment: IC50 determination (CCK-8); type: cell-based; details: A549, DMEM HG, treated 8 h
Experimental: as §1

[5] = tested on: Mouse melanoma B16 cell line; experiment: IC50 determination (CCK-8); type: cell-based; details: B16, RPMI 1640, treated 8 h
Experimental: as §1

Cryptococcus neoformans = experiment: Test for Cryptococcus-infected mice; type: in vivo; details: Example 1 2, 4, 8 mg/kg iv, fluconazole 8 mg/kg ip

`F[Si-2](F)(F)(F)(F)F.c1cnc2c(c1)ccc1ccc[nH+]c12.c1cnc2c(c1)ccc1ccc[nH+]c12.c1cnc2c(c1)ccc1cccnc12.c1cnc2c(c1)ccc1cccnc12` [Example 2] showed an MIC (C. neoformans) of 0.4 µg/mL, an MFC (C. neoformans) of 5 µg/mL and an MIC (E. faecalis) of 6 µg/mL. For the same compound, the MBC (E. faecalis) was 20 µg/mL, the MIC (S. thermophilus) was 0.8 µg/mL and the MBC (S. thermophilus) was 4 µg/mL. It also gave an MIC (H. staphylococcus) of 0.2 µg/mL, an MBC (H. staphylococcus) of 0.5 µg/mL and an MIC (P. aeruginosa) of 0.4 µg/mL. It also gave an MBC (P. aeruginosa) of 2 µg/mL, an MIC (P. fluorescens) of 0.4 µg/mL and an MBC (P. fluorescens) of 3 µg/mL. It also gave an MIC (S. enteritidis) of 0.8 µg/mL, an MBC (S. enteritidis) of 4 µg/mL and an MIC (Y. enterocolitis) of 0.4 µg/mL. The MBC (Y. enterocolitis) was 2 µg/mL, the MIC (S. lactis) was 1.2 µg/mL and the MBC (S. lactis) was 4 µg/mL. For the same compound, the MIC (M. globosa) was 2 µg/mL, the MFC (M. globosa) was 10 µg/mL and the MIC (E. coli) was 0.4. It also gave an MIC (P. vulgaris) of 0.8 µg/mL, an MBC (P. vulgaris) of 4 µg/mL and an MIC (C. albicans) of 0.4 µg/mL. For the same compound, the MFC (C. albicans) was 8 µg/mL, the MIC (S. aureus) was 0.4 and the MIC (B. subtilis) was 0.6 µg/mL. It also gave an MBC (B. subtilis) of 2.5 µg/mL, an MIC (L. monocytogenes) of 0.3 µg/mL and an MBC (L. monocytogenes) of 1.2 µg/mL. It also gave an MIC (K. pneumoniae) of 0.8 µg/mL, an MBC (K. pneumoniae) of 5 µg/mL and an MIC (M. furfur) of 1 µg/mL. The MFC (M. furfur) was 6 µg/mL, the MIC (A. flavus) was 0.4 µg/mL and the MFC (A. flavus) was 6 µg/mL. For the same compound, the MIC (B. cereus) was 2 µg/mL, the MBC (B. cereus) was 6 µg/mL and the MIC (S. epidermidis) was 0.4 µg/mL. For the same compound, the MBC (S. epidermidis) was 2.5 µg/mL, the MIC (T. rubrum) was 1.6 µg/mL and the MFC (T. rubrum) was 10 µg/mL. For the same compound, the MIC (S. bovis) was 0.6 µg/mL, the MBC (S. bovis) was 2 µg/mL and the MIC (C. perfringens) was 2.5. It also gave an MIC (A. niger) of 0.4 µg/mL, an MFC (A. niger) of 4 µg/mL and an MIC (C. diphtheriae) of 1.6. The MIC (S. mutans) was 0.8 µg/mL and the MBC (S. mutans) was 4 µg/mL.

`O=S(=O)(O)O.c1cnc2c(c1)ccc1cccnc12.c1cnc2c(c1)ccc1cccnc12.c1cnc2c(c1)ccc1cccnc12.c1cnc2c(c1)ccc1cccnc12` [Example 3] gave an MIC (C. neoformans) of 0.5 µg/mL, an MFC (C. neoformans) of 6 µg/mL and an MIC (E. faecalis) of 8 µg/mL. It also gave an MBC (E. faecalis) of 30 µg/mL, an MIC (S. thermophilus) of 1 µg/mL and an MBC (S. thermophilus) of 5 µg/mL. The MIC (H. staphylococcus) was 0.2 µg/mL, the MBC (H. staphylococcus) was 0.6 µg/mL and the MIC (P. aeruginosa) was 0.5 µg/mL. The MBC (P. aeruginosa) was 3 µg/mL, the MIC (P. fluorescens) was 0.5 µg/mL and the MBC (P. fluorescens) was 3 µg/mL. It also gave an MIC (S. enteritidis) of 1 µg/mL, an MBC (S. enteritidis) of 5 µg/mL and an MIC (Y. enterocolitis) of 0.5 µg/mL. For the same compound, the MBC (Y. enterocolitis) was 3 µg/mL, the MIC (S. lactis) was 1.5 µg/mL and the MBC (S. lactis) was 6 µg/mL. The MIC (M. globosa) was 2 µg/mL, the MFC (M. globosa) was 12 µg/mL and the MIC (E. coli) was 0.5. The MIC (P. vulgaris) was 1 µg/mL, the MBC (P. vulgaris) was 6 µg/mL and the MIC (C. albicans) was 0.5 µg/mL. For the same compound, the MFC (C. albicans) was 9 µg/mL, the MIC (S. aureus) was 0.5 and the MIC (B. subtilis) was 0.6 µg/mL. For the same compound, the MBC (B. subtilis) was 3 µg/mL, the MIC (L. monocytogenes) was 0.3 µg/mL and the MBC (L. monocytogenes) was 1.5 µg/mL. The MIC (K. pneumoniae) was 1 µg/mL, the MBC (K. pneumoniae) was 6 µg/mL and the MIC (M. furfur) was 1 µg/mL. It also gave an MFC (M. furfur) of 6 µg/mL, an MIC (A. flavus) of 0.5 µg/mL and an MFC (A. flavus) of 6 µg/mL. The MIC (B. cereus) was 2 µg/mL, the MBC (B. cereus) was 9 µg/mL and the MIC (S. epidermidis) was 0.5 µg/mL. The MBC (S. epidermidis) was 3 µg/mL, the MIC (T. rubrum) was 2 µg/mL and the MFC (T. rubrum) was 12 µg/mL. For the same compound, the MIC (S. bovis) was 0.8 µg/mL, the MBC (S. bovis) was 3 µg/mL and the MIC (C. perfringens) was 3. For the same compound, the MIC (A. niger) was 0.5 µg/mL, the MFC (A. niger) was 6 µg/mL and the MIC (C. diphtheriae) was 2. For the same compound, the MIC (S. mutans) was 1 µg/mL and the MBC (S. mutans) was 5 µg/mL.

`F[P-](F)(F)(F)(F)F.O=[N+]([O-])c1cc2ccc[nH+]c2c2ncccc12.O=[N+]([O-])c1cc2cccnc2c2ncccc12` [Example 7] showed an MIC (B. cereus) of 0.5 µg/mL, an MBC (B. cereus) of 4 µg/mL and an IC50 [1] of 32 µM. It also gave an IC50 [2] of 320 µM, an IC50 [3] of 320 µM and an IC50 [4] of 320 µM. It also gave an IC50 [5] of 320 µM.

`OC(Cn1cncn1)(Cn1cncn1)c1ccc(F)cc1F` [fluconazole] was tested, and the “pathological symptoms of brains and lungs (cerebral edema, pneumonia)” value (Cryptococcus neoformans) was “pathological symptoms were improved” and the “Cryptococcus-infected symptoms and weight” value (Cryptococcus neoformans; once a day for 9 days) was “the symptoms were improved, and the weight gained”.
